The results in this text go back to ChEMBL document CHEMBL1909582, “Identification of novel NK1/NK3 dual antagonists for the potential treatment of schizophrenia” (Bioorg Med Chem Lett, 2011).

Where only a bound is given, the exact number is not on record here.

The target in assay [1] is T1, Substance-P receptor (Homo sapiens, UniProt P25103). The assay can be described thus: Antagonist activity at human recombinant NK1 receptor expressed in human U20S cells assessed as substance P maximal stimulation at 1 nM by FLIPR assay. The class given is functional, cell-based. The conditions noted are these: U2OS.
For another assay, the target named is T2, Neuromedin-K receptor (Homo sapiens, UniProt P29371).
T2 sequence (P29371 whole entry): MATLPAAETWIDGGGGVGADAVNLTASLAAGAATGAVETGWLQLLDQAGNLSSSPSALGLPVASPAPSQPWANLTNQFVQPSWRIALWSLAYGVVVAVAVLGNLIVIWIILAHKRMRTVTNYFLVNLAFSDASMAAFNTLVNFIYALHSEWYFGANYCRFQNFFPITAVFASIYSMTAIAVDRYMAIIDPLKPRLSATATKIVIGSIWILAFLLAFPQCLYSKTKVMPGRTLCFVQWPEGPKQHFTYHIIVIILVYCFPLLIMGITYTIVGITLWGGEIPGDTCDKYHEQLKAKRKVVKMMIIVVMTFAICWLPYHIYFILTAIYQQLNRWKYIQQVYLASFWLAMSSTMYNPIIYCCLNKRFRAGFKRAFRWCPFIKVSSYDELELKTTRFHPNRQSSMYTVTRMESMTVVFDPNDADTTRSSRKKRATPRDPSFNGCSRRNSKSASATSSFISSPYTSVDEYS
The assay can be described thus: Antagonist activity at human recombinant NK3 receptor expressed in human U20S cells assessed as effect on NKB-induced intracellular calcium level by FLIPR assay. The class given is functional, cell-based, U2OS.

Assay [2] concerns the target T1, Substance-P receptor. Kind of assay: Antagonist activity at human recombinant NK1 receptor expressed in human U20S cells assessed as substance P maximal stimulation at 3 nM by FLIPR assay. In kind it is functional, cell-based. The conditions noted are these: U2OS.
The target of assay [3] is T1, Substance-P receptor. The assay can be described thus: Antagonist activity at human recombinant NK1 receptor expressed in human U20S cells assessed as effect on substance P-induced intracellular calcium level by FLIPR assay. In kind it is functional, cell-based, U2OS.
The target of assay [4] is T3, Neuromedin-K receptor (Homo sapiens) (UniProt P29371).
T3 sequence (whole entry): T2 sequence (P29371 whole entry)
The assay can be described thus: Antagonist activity at human recombinant NK3 receptor expressed in human U20S cells assessed as neurokinin B maximal stimulation at 30 nM by FLIPR assay. The conditions noted are these: U2OS.

In assay [5] the target is T3, Neuromedin-K receptor (Homo sapiens). The assay can be described thus: Antagonist activity at human recombinant NK3 receptor expressed in human U20S cells assessed as neurokinin B maximal stimulation at 100 nM by FLIPR assay. The conditions noted are these: U2OS.

T1 sequence (P25103 whole entry): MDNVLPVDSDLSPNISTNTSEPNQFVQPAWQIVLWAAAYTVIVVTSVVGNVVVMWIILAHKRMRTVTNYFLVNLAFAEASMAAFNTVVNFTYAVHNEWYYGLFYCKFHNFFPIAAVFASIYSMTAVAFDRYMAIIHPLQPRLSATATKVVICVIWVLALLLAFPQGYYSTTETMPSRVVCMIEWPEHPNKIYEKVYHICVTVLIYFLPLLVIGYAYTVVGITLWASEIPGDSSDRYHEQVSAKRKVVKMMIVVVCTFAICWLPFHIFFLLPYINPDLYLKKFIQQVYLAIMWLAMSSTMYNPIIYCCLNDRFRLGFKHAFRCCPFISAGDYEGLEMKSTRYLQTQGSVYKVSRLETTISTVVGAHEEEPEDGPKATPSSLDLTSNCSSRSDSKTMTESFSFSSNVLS

Turning to `Cc1cc(F)ccc1-c1cc(C2CNC(=O)C2)ncc1N(C)C(=O)C(C)(C)c1cc(C(F)(F)F)cc(C(F)(F)F)c1` (stereo not drawn), the values for the Emax at Substance-P receptor [1] and on Substance-P receptor [2] were 64% and 20%, respectively. In addition, the figures for the Ki at Neuromedin-K receptor and at Substance-P receptor [3] were 31.6 nM and < 0.158 nM, respectively.
In the case of `Cc1cc(F)ccc1-c1cc(C2CNC(=O)C2CO)ncc1N(C)C(=O)C(C)(C)c1cc(C(F)(F)F)cc(C(F)(F)F)c1` (racemic) [listing 1 of 2 here], the inhibitory constant (Ki) at Neuromedin-K receptor was 7.94 nM; at Substance-P receptor [3] it was 0.251 nM.
For the compound `Cc1cc(F)ccc1-c1cc(C2CC(=O)NC2(CO)CO)ncc1N(C)C(=O)C(C)(C)c1cc(C(F)(F)F)cc(C(F)(F)F)c1` (racemic) [listing 1 of 2 here], the Ki on Neuromedin-K receptor was 5.01 nM; on Substance-P receptor [3] it was 0.1 nM.
Take `Cc1cc(F)ccc1-c1cc(C2CC(=O)NC2(CO)CO)ncc1N(C)C(=O)C(C)(C)c1cc(C(F)(F)F)cc(C(F)(F)F)c1` (racemic) [listing 2 of 2 here]: the maximum response (Emax) worked out at 89% on Substance-P receptor [1] and 28% on Substance-P receptor [2].
Take `Cc1cc(F)ccc1-c1cc(C2CNC(=O)C2CO)ncc1N(C)C(=O)C(C)(C)c1cc(C(F)(F)F)cc(C(F)(F)F)c1` (racemic) [listing 2 of 2 here]: the results for the Emax at Substance-P receptor [1] and at Substance-P receptor [2] were 109% and 63%, respectively.
Take `Cc1cc(F)ccc1-c1cc(C2CN(C)C(=O)C2CO)ncc1N(C)C(=O)C(C)(C)c1cc(C(F)(F)F)cc(C(F)(F)F)c1` (single isomer, unassigned): the Emax on Substance-P receptor [1] was 66%; in assay [4] it was 67%; in assay [5] it was 56%; at Substance-P receptor [2] it was 5%. In addition, the Ki on Neuromedin-K receptor was 1 nM; at Substance-P receptor [3], 0.0631 nM.
Turning to `Cc1cc(F)ccc1-c1cc(C2NC(=O)CC2CO)ncc1N(C)C(=O)C(C)(C)c1cc(C(F)(F)F)cc(C(F)(F)F)c1` (single isomer, unassigned; 8a) [listing 1 of 2 here], the values for the Ki on Neuromedin-K receptor and on Substance-P receptor [3] were 39.8 nM and 0.0794 nM, respectively.
Regarding `Cc1cc(F)ccc1-c1cc(C2NC(=O)CC2CO)ncc1N(C)C(=O)C(C)(C)c1cc(C(F)(F)F)cc(C(F)(F)F)c1` (single isomer, unassigned; 8a) [listing 2 of 2 here], the Emax at Substance-P receptor [1] worked out at 64%; on Substance-P receptor [2], 25%.
On to `Cc1cc(F)ccc1-c1cc(C2NC(=O)CC2CO)ncc1N(C)C(=O)C(C)(C)c1cc(C(F)(F)F)cc(C(F)(F)F)c1` (single isomer, unassigned; 8b), for which the inhibitory constant (Ki) at Neuromedin-K receptor was 501 nM; at Substance-P receptor [3], 0.501 nM.
For the compound `Cc1cc(F)ccc1-c1cc(C2NC(=O)CC2CO)ncc1N(C)C(=O)C(C)(C)c1cc(C(F)(F)F)cc(C(F)(F)F)c1` (single isomer, unassigned; 9a) [listing 1 of 2 here], the figures for the Ki on Neuromedin-K receptor and at Substance-P receptor [3] were 5.01 nM and 0.251 nM, respectively.
As to `Cc1cc(F)ccc1-c1cc(C2NC(=O)CC2CO)ncc1N(C)C(=O)C(C)(C)c1cc(C(F)(F)F)cc(C(F)(F)F)c1` (single isomer, unassigned; 9a) [listing 2 of 2 here], the Emax came to 98% on Substance-P receptor [1], 83% in assay [4], 74% in assay [5] and 60% at Substance-P receptor [2].
Consider `Cc1cc(F)ccc1-c1cc(C2NC(=O)CC2CO)ncc1N(C)C(=O)C(C)(C)c1cc(C(F)(F)F)cc(C(F)(F)F)c1` (single isomer, unassigned; 9b) [listing 1 of 2 here], for which the inhibition constant Ki at Neuromedin-K receptor is 31.6 nM; at Substance-P receptor [3], 0.316 nM.
`Cc1cc(F)ccc1-c1cc(C2NC(=O)CC2CO)ncc1N(C)C(=O)C(C)(C)c1cc(C(F)(F)F)cc(C(F)(F)F)c1` (single isomer, unassigned; 9b) [listing 2 of 2 here]: the Emax on Substance-P receptor [1] was determined as 79%; on Substance-P receptor [2] it was 30%.
On to `Cc1cc(F)ccc1-c1cc(C2CC(=O)NC2CO)ncc1N(C)C(=O)C(C)(C)c1cc(C(F)(F)F)cc(C(F)(F)F)c1` (single isomer, unassigned; 21a), for which the values for the Ki on Neuromedin-K receptor and on Substance-P receptor [3] were 25.1 nM and < 0.158 nM, respectively.
On to `Cc1cc(F)ccc1-c1cc(C2CC(=O)NC2CO)ncc1N(C)C(=O)C(C)(C)c1cc(C(F)(F)F)cc(C(F)(F)F)c1` (single isomer, unassigned; 21b), for which the Ki on Neuromedin-K receptor was 794 nM; at Substance-P receptor [3] it was < 0.158 nM.
For `Cc1cc(F)ccc1-c1cc(C2CC(=O)NC2CO)ncc1N(C)C(=O)C(C)(C)c1cc(C(F)(F)F)cc(C(F)(F)F)c1` (single isomer, unassigned; 22a) [listing 1 of 2 here], in that order: 2 nM and 0.251 nM.
In the case of `Cc1cc(F)ccc1-c1cc(C2CC(=O)NC2CO)ncc1N(C)C(=O)C(C)(C)c1cc(C(F)(F)F)cc(C(F)(F)F)c1` (single isomer, unassigned; 22a) [listing 2 of 2 here], the maximal response (Emax) at Substance-P receptor [1] came to 103%; in assay [4], 101%; in assay [5], 76%; on Substance-P receptor [2], 39%.
Regarding `Cc1cc(F)ccc1-c1cc(C2CC(=O)NC2CO)ncc1N(C)C(=O)C(C)(C)c1cc(C(F)(F)F)cc(C(F)(F)F)c1` (single isomer, unassigned; 22b), the inhibition constant (Ki) at Neuromedin-K receptor is 20 nM; on Substance-P receptor [3], 0.251 nM.
Take `Cc1cc(F)ccc1-c1cc(C2CNC(=O)C2CO)ncc1N(C)C(=O)C(C)(C)c1cc(C(F)(F)F)cc(C(F)(F)F)c1` (single isomer, unassigned; enantiomer 1) [listing 1 of 2 here]: the Ki is 79.4 nM on Neuromedin-K receptor and 0.0501 nM on Substance-P receptor [3].
Take `Cc1cc(F)ccc1-c1cc(C2CC(=O)NC2(CO)CO)ncc1N(C)C(=O)C(C)(C)c1cc(C(F)(F)F)cc(C(F)(F)F)c1` (single isomer, unassigned; enantiomer 1): the Ki on Neuromedin-K receptor was 6.31 nM; at Substance-P receptor [3], < 0.158 nM.
Consider `Cc1cc(F)ccc1-c1cc(C2CNC(=O)C2CO)ncc1N(C)C(=O)C(C)(C)c1cc(C(F)(F)F)cc(C(F)(F)F)c1` (single isomer, unassigned; enantiomer 1) [listing 2 of 2 here], for which the maximal effect (Emax) came out at 103% on Substance-P receptor [1] and 19% on Substance-P receptor [2].
`Cc1cc(F)ccc1-c1cc(C2CNC(=O)C2CO)ncc1N(C)C(=O)C(C)(C)c1cc(C(F)(F)F)cc(C(F)(F)F)c1` (single isomer, unassigned; enantiomer 2) [listing 1 of 2 here]: the results for the inhibition constant Ki on Neuromedin-K receptor and at Substance-P receptor [3] were 1.58 nM and 0.158 nM, respectively.
With `Cc1cc(F)ccc1-c1cc(C2CC(=O)NC2(CO)CO)ncc1N(C)C(=O)C(C)(C)c1cc(C(F)(F)F)cc(C(F)(F)F)c1` (single isomer, unassigned; enantiomer 2), the Ki at Neuromedin-K receptor was 631 nM; at Substance-P receptor [3], < 0.158 nM.
As for `Cc1cc(F)ccc1-c1cc(C2CNC(=O)C2CO)ncc1N(C)C(=O)C(C)(C)c1cc(C(F)(F)F)cc(C(F)(F)F)c1` (single isomer, unassigned; enantiomer 2) [listing 2 of 2 here], the Emax is 101% at Substance-P receptor [1] and 37% on Substance-P receptor [2].
